Paper PMC10030409 (Investigational New Drugs, 2023)
Read-outs that look alike come from different tables or passages of the source.

Experiments:
clinical [1] = conditions: human, in vivo
Description: Patients were asked to determine the time of drug intake. The collected serum and whole peripheral blood samples were stored at − 80 °C until analysis.
Several candidate PopPK models with different structures were compared based on the goodness-of-fit (GOF) plots and the objective function value (OFV) expressed as minus twice log likelihood (−2LL), and the difference in OFV between the two nested models was statistically evaluated using the chi-square test (the decrease in −2LL >3.84, p < 0.05, was considered statistically significant).
Stepwise covariate analysis was performed to evaluate the effect of covariates on clearance and volume of distribution. The significance of the effect was assessed by the −2LL value; decrease in −2LL of >3.84 (p < 0.050) for the forward addition was considered significant. The impact of body weight (BW), albumin (ALB), age (AGE), sex, aspartate aminotransferase (AST), and alanine aminotransferase (ALT) levels on CLparent/F, CLm5/F, and CLm7/F was evaluated. In addition, BW, ALB, AGE, and sex were evaluated on Vparent/F, Vm5/F, and Vm7/F. The covariates were modeled as shown in equation (c) in the power form for continuous covariates, equation (d) with log-transformation for continuous covariates with outliers, and equation (e) for categorical covariates: […]
The candidate PopPK models were evaluated by goodness of fit, ∆−2LL values, η-shrinkage, and relative standard error (RSE%). […] The uncertainty of the parameters was estimated by performing a bootstrap. The original dataset was randomly resampled to generate 1000 samples, and the parameters estimated from the successful runs were compared to those estimated from the original dataset.

[2] = cited from earlier work; for Fraction of metabolite conversion from the parent: fixed in the PopPK model
[3] = human, in vivo
Description: This prospective, longitudinal observational study was designed and conducted at the Ageo Central General Hospital from February 2019 to July 2020 and Keio University Hospital from June 2020 to April 2022. The primary endpoint was the association of exposures to osimertinib, AZ5104, AZ7550, or germline polymorphisms with AE severity. […] Patients who were mentally or physically incapable of providing informed consent were excluded from the study. […] The study was conducted with adherence to the Declaration of Helsinki.

[4] = in vivo
Description: Polymorphisms in EGFR, ABCG2, ABCB1, and POR (Online Resource, Appendix A) were analyzed using TaqMan® probe-based assays (Applied Biosystems, Foster City, CA, USA), whereas the ABCG2 polymorphism (rs2231137) was studied using the CycleavePCR® assay (TaKaRa Bio Inc., Kusatsu, Japan). The detailed genotyping method is provided in the Online Resource (Appendix A).
Germline polymorphism and the worst grade of AE occurring in each patient were analyzed for pharmacogenomics–toxicity relationship analysis.
The cut-off date for data collection was April 4, 2022. Continuous variables such as AUC0–24 and laboratory data are presented as median (interquartile range, IQR); estimates of PopPK parameters are presented as mean (standard error, SE). […] Receiver operating characteristic (ROC) curve analysis was used to evaluate the discrimination potential of AUC0–24 for grade ≥ 2 AEs. […] All p-values were two-sided, and statistical significance was set at p < 0.05.
The EGFR polymorphisms (rs2293348, rs4947492, rs11977388, rs2227983, and rs884225), ABCG2 (rs2231142 and rs2622604), ABCB1 (rs1128503, rs1045642, and rs2032582), and POR (rs17685 and rs1057868) were analyzed using Taqman® probe-based assays (Applied Biosystems, CA, USA). The probes (FAM/VIC-fluorescent) and primers for these polymorphisms were purchased from Applied Biosystems (TaqMan® SNP Genotyping Assay ID: C _ 144945_20, C _ 27876021_10, C _ 321871_10, C _ 16170352_20, and C _ 9501579_10 for EGFR polymorphisms; C _ 15854163_70 and C _ 9510352_10 for ABCG2 polymorphisms; C _ 7586662_10, C _ 7586657_20, C_11711720D_40, and C_11711720C_30 for ABCB1 polymorphisms; and C _ 8890133_30 and C _ 8890131_30 for POR polymorphisms). The real-time PCR reaction mix included 4.5 ng of DNA template diluted in 4.5 µL DNase‑Free distilled water, 5 µL TaqMan® Universal Master Mix II with UNG (Uracil-N-Glycosylase), and 0.5 µL TaqMan® SNP Genotyping Assay mix, including the primers and probes, in a total volume of 10 µL. The reactions were performed under the following conditions: UNG incubation at 50 °C for 2 min and polymerase activation at 95 °C for 10 min, followed by 50 cycles of 95 °C for 15 s and 60 °C for 60 s.
ABCG2 polymorphism (rs2231137) was studied using the CycleavePCR® assay (TaKaRa Bio Inc., Kusatsu, Shiga, Japan). The primers and probes for ABCG2 rs2231137 were designed using the CycleavePCR Assay Designer (SNPs, TaKaRa Bio Inc.): forward 5′- […]-3′; reverse 5′-[…]-3′; FAM-labeled probe 5′-(Eclipse)[…][G]TG(FAM)-3′; and HEX-labeled probe 5′-(Eclipse)TATCCCA[A]TGT(HEX)-3′. The real-time PCR reaction mix per reaction included 4 ng of DNA template diluted in 10.5 μL DNase‑Free distilled water, 12.5 μL CycleavePCR Reaction Mix, 0.5 μL each of forward and reverse primers, and 1 μL each of FAM/HEX-labeled probes in a total volume of 26 μL. The reactions were performed under the following conditions: initial denaturation at 95 °C for 10 s, followed by 50 cycles at 95 °C for 5 s, 55 °C for 10 s, and 72 °C for 20 s.
After real-time PCR, the result of the allelic discrimination was plotted by reading the generated fluorescence using CFX Manager Software version 3.1 (Bio-Rad Laboratories). For quality control, all the polymorphisms were genotyped more than twice.

[5] = cited from earlier work
clinical [6] = conditions: human, in vivo; remark: listed apart in the source
wild-type EGFR = conditions: higher potency; cited from earlier work
[7] = Osimertinib AUC0-24 <4938 ng/mL*h, n = 29, any grade
[8] = Osimertinib AUC0-24 <4938 ng/mL*h, n = 29, grade ≥2
[9] = Osimertinib AUC0-24 ≥4938 ng/mL*h, n = 22, any grade
[10] = Osimertinib AUC0-24 ≥4938 ng/mL*h, n = 22, grade ≥2

For `C=CC(=O)Nc1cc(Nc2nccc(-c3cn(C)c4ccccc34)n2)c(OC)cc1N(C)CCNC` [AZ7550], the “AUC0–24 at steady state, median (IQR)” value (clinical [1]) was 367 (275–516) ng/mL*h, the “Clearance CL/F (θ1, θ4, θ6)” value (clinical [1]) was 46.2 L/h and the “Coefficient of variation for clearance (CL/F)” value (from here on “Coefficient of variation”) (clinical [1]) was 27%. For the same compound, the “Association between AUC0–24 and grade ≥ 2 anorexia” value (human, in vivo) was “significant association”, the “Association between AUC0–24 and grade ≥ 2 increased creatinine” value (human, in vivo) was “significant association” and the “Association between AUC0–24 and grade ≥ 2 paronychia” value (human, in vivo) was “significant association”. The “Sensitivity of AUC0–24 cut-off for grade ≥ 2 AEs” value (human, in vivo) was 49%, the “Specificity of AUC0–24 cut-off for grade ≥ 2 AEs” value (human, in vivo) was 90% and the “Area under the ROC curve for predicting grade ≥ 2 AEs using AUC0–24” value (in vivo) was 0.651. For the same compound, the “Cut-off AUC0–24 to predict grade ≥ 2 AEs” value (in vivo) was 462 ng·h/mL, the “Circulating exposure of active metabolite relative to the parent compound” value [2] was 10% and the Half-life [2] was 72.7 h. The “Fraction of metabolite conversion from the parent” value [2] was 25%.

With `C=CC(=O)Nc1cc(Nc2nccc(-c3cn(C)c4ccccc34)n2)c(OC)cc1N(C)CCN(C)C` [osimertinib] the “Clearance CL/F (θ1, θ4, θ6)” value (clinical [1]) was 17.37 L/h, the “Coefficient of variation” value (clinical [1]) was 30% and the “Volume of distribution V/F (θ2, θ5, θ7)” value (clinical [1]) was 1386 L. For the same compound, the Vd/F (clinical [1]; Volume of distribution V/F (θ2, θ5, θ7)) was 1270 L, the “Association of EGFR-TKI treatment line with severe AEs” value [3] was “higher frequency of severe AEs in patients receiving therapy as first-line treatment” and the “Severe liver dysfunction within the observation period” value [3] was “No patient”. For the same compound, the “Patients who experienced severe AEs (grade 3 or leading to dose discontinuation)” value ([3]; 3 months) was “Approximately 25%”, the “Patients with grade ≥ 2 skin disorders (most prevalent grade ≥ 2 AE)” value ([3]; 3 months) was 63% and the “Patients with interstitial lung disease leading to treatment discontinuation” value ([3]; 3 months) was 2.0%. The “Any grade ≥ 2 AEs in patients with ABCG2 rs2231137 G/A or A/A genotypes” value [4] was “higher frequency”, the “Association of ABCB1 rs1128503 C > T (C/T and T/T genotypes) with any grade ≥ 2 AEs” value [4] was “significant association” and the “Association of ABCB1 rs2032582 G > T/A (A/T and G/T genotypes) with any grade ≥ 2 skin disorders” value [4] was “associated”. The “Association of ABCB1 rs2032582 G > T/A (A/T and G/T genotypes) with grade ≥ 2 lymphocyte count decrease” value [4] was “associated”, the “Association of EGFR rs2293348 C > T (C/T genotype) with any severe AEs” value [4] was “associated with any severe AEs” and the “Association of EGFR rs2293348 C > T (C/T genotype) with grade ≥ 1 or ≥ 2 anorexia” value [4] was “significantly associated”. For the same compound, the “Association of EGFR rs4947492 G > A (A/A genotype) with any severe AEs” value [4] was “associated with any severe AEs”, the “Association of polymorphisms in POR with any AEs or PK” value [4] was “not significantly associated” and the “Association between AUC0–24 and grade ≥ 2 increased creatinine” value (Mann–Whitney U test) was “significant association”. For the same compound, the “Anorexia, % of patients” value [7] was “(10.3) %”, the “Anorexia, No. of patients” value [7] was 3 and the “Any adverse events, % of patients” value [7] was “(100.0) %”. For the same compound, the “Any adverse events, No. of patients” value [7] was 29, the “Creatinine increased, % of patients” value [7] was “(44.8) %” and the “Creatinine increased, No. of patients” value [7] was 13. For the same compound, the “Diarrhea, % of patients” value [7] was “(58.6) %”, the “Diarrhea, No. of patients” value [7] was 17 and the “Interstitial lung disease, % of patients” value [7] was “(0.0) %”. For the same compound, the “Interstitial lung disease, No. of patients” value [7] was 0, the “Paronychia, % of patients” value [7] was “(37.9) %” and the “Paronychia, No. of patients” value [7] was 11. For the same compound, the “Anorexia, % of patients” value [8] was “(6.90) %”, the “Anorexia, No. of patients” value [8] was 2 and the “Any adverse events, % of patients” value [8] was “(69.0) %”. For the same compound, the “Any adverse events, No. of patients” value [8] was 20, the “Creatinine increased, % of patients” value [8] was “(0.0) %” and the “Creatinine increased, No. of patients” value [8] was 0. For the same compound, the “Diarrhea, % of patients” value [8] was “(0.0) %”, the “Diarrhea, No. of patients” value [8] was 0 and the “Interstitial lung disease, % of patients” value [8] was “(0.0) %”. For the same compound, the “Interstitial lung disease, No. of patients” value [8] was 0, the “Paronychia, % of patients” value [8] was “(27.6) %” and the “Paronychia, No. of patients” value [8] was 8. For the same compound, the “Anorexia, % of patients” value [9] was “(18.2) %”, the “Anorexia, No. of patients” value [9] was 4 and the “Any adverse events, % of patients” value [9] was “(100.0) %”. The “Any adverse events, No. of patients” value [9] was 22, the “Creatinine increased, % of patients” value [9] was “(50.0) %” and the “Creatinine increased, No. of patients” value [9] was 11. The “Diarrhea, % of patients” value [9] was “(45.5) %”, the “Diarrhea, No. of patients” value [9] was 10 and the “Interstitial lung disease, % of patients” value [9] was “(4.5) %”. The “Interstitial lung disease, No. of patients” value [9] was 1, the “Paronychia, % of patients” value [9] was “(54.5) %” and the “Paronychia, No. of patients” value [9] was 12. For the same compound, the “Anorexia, % of patients” value [10] was “(13.6) %”, the “Anorexia, No. of patients” value [10] was 3 and the “Any adverse events, % of patients” value [10] was “(95.5) %”. For the same compound, the “Any adverse events, No. of patients” value [10] was 21, the “Creatinine increased, % of patients” value [10] was “(18.2) %” and the “Creatinine increased, No. of patients” value [10] was 4. The “Diarrhea, % of patients” value [10] was “(13.6) %”, the “Diarrhea, No. of patients” value [10] was 3 and the “Interstitial lung disease, % of patients” value [10] was “(4.5) %”. The “Interstitial lung disease, No. of patients” value [10] was 1, the “Paronychia, % of patients” value [10] was “(27.3) %” and the “Paronychia, No. of patients” value [10] was 6. For the same compound, the “Sensitivity of AUC0–24 cut-off for grade ≥ 2 AEs” value (ROC curve) was 51%, the “Specificity of AUC0–24 cut-off for grade ≥ 2 AEs” value (ROC curve) was 90% and the Half-life [2] was 59.7 h. The Oral bioavailability [2] was 69.8%, the “Patients experiencing grade ≥ 2 adverse events” value [5] was “over 80%” and the “Patients experiencing grade ≥ 3 adverse events” value [5] was > 30%. It also gave an AUC(0-t) (clinical [6]) of 5530 ng·h/mL.

For `C=CC(=O)Nc1cc(Nc2nccc(-c3c[nH]c4ccccc34)n2)c(OC)cc1N(C)CCN(C)C` [AZ5104], the “Clearance CL/F (θ1, θ4, θ6)” value (clinical [1]) was 44.41 L/h, the “Coefficient of variation” value (clinical [1]) was 35% and the “Inter-occasion variance of clearance (ω^2 CL,IOV)” value (clinical [1]) was 0.034. For the same compound, the “Potency against wild-type EGFR compared with the parent compound” value (wild-type EGFR) was 15 fold, the Half-life [2] was 52.6 h and the “Fraction of metabolite conversion from the parent” value [2] was 25%.
